Data set [1] in a line: on-resin intramolecular Suzuki-Miyaura biaryl stapling (i,i+4) between 6- or 7-bromo-Trp and aryl boronic acid/Bpin side chain; Pd2(dba)3 0.2 eq, sSPhos 0.4 eq, KF 4 eq, microwave 120 C 30 min; then TFA/TIS/H2O cleavage. To be noted: the molecule shown is the open-chain precursor, DME/EtOH/H2O 9:9:2, 16.7 mM, 0.5 h.
Assay in data set [2]: not given
This is another data set of the same source.

Assay in data set [3]: not given
This is another data set of the same source.

For the next data set, the system named is Proteinase K. Briefly: Proteinase K (2.5 µg mL−1) in Na2HPO4 buffer (100 mM, pH 7.4). To be noted: 25 °C, up to 120 min.
Another data set has as its target T1, β-catenin (Homo sapiens, UniProt P35222).
T1 chain: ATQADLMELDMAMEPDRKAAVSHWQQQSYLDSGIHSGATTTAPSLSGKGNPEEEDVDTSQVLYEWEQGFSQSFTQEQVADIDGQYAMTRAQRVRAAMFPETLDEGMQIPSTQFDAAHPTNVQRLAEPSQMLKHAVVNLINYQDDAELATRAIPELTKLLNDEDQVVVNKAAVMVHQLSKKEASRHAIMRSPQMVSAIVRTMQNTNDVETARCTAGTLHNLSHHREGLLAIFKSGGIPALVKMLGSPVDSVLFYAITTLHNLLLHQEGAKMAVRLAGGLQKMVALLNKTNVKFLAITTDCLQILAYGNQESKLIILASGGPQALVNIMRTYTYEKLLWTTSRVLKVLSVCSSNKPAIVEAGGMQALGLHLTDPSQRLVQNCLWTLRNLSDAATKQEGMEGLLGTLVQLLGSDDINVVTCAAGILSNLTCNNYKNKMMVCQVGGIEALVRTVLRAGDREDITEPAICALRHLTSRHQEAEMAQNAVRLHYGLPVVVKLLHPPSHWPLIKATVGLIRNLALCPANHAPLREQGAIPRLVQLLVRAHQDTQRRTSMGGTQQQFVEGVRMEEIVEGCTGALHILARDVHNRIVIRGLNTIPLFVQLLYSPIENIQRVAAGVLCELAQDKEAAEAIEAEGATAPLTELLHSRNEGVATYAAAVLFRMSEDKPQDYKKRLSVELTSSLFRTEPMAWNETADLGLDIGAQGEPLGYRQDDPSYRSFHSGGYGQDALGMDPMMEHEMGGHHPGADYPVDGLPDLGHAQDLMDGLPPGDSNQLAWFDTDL
As to the kind of experiment: direct fluorescence polarisation. On the technique in general: Fluorescence polarisation rises when a labelled molecule tumbles more slowly, as on binding a larger partner.

“Also recorded” adds a separate entry of the source. No end group written: not given here.

As to `CC[C@H](C)[C@H](NC(=O)[C@H](Cc1c[nH]c2c(Br)cccc12)NC(=O)[C@H](CCC(=O)OC(C)(C)C)NC(=O)[C@@H]1CCCN1C(=O)[C@H](CC(=O)NC(c1ccccc1)(c1ccccc1)c1ccccc1)NC(=O)[C@H](CCC(=O)OC(C)(C)C)NC(C)=O)C(=O)N[C@@H](CC(C)C)C(=O)N[C@@H](CC(=O)OC(C)(C)C)C(=O)N[C@@H](CCCCNC(=O)CCc1ccc(B(O)O)cc1)C(=O)N[C@@H](Cc1cn(C(c2ccccc2)(c2ccccc2)c2ccccc2)cn1)C(=O)N[C@H](C(=O)N[C@@H](CCC(=O)NC(c1ccccc1)(c1ccccc1)c1ccccc1)C(=O)N[C@@H](CCCNC(=N)NS(=O)(=O)c1c(C)c(C)c2c(c1C)CC(C)(C)O2)C(=O)N[C@H](C(=O)N[C@@H](CCSC)C(N)=O)C(C)C)C(C)C`, the ring closure, overall yield in data set [1] (30-membered ring) stood at 14%. The molecule `CC[C@H](C)[C@H](NC(=O)[C@H](Cc1c[nH]c2c(Br)cccc12)NC(=O)[C@H](CCC(=O)OC(C)(C)C)NC(=O)[C@@H]1CCCN1C(=O)[C@H](CC(=O)NC(c1ccccc1)(c1ccccc1)c1ccccc1)NC(=O)[C@H](CCC(=O)OC(C)(C)C)NC(C)=O)C(=O)N[C@@H](CC(C)C)C(=O)N[C@@H](CC(=O)OC(C)(C)C)C(=O)N[C@@H](CCCCNC(=O)c1ccc(B(O)O)cc1)C(=O)N[C@@H](Cc1cn(C(c2ccccc2)(c2ccccc2)c2ccccc2)cn1)C(=O)N[C@H](C(=O)N[C@@H](CCC(=O)NC(c1ccccc1)(c1ccccc1)c1ccccc1)C(=O)N[C@@H](CCCNC(=N)NS(=O)(=O)c1c(C)c(C)c2c(c1C)CC(C)(C)O2)C(=O)N[C@H](C(=O)N[C@@H](CCSC)C(N)=O)C(C)C)C(C)C` gave a ring closure, overall yield in data set [1] (28-membered ring) of 11%. The molecule `CC[C@H](C)[C@H](NC(=O)[C@H](Cc1c[nH]c2c(Br)cccc12)NC(=O)[C@H](CCC(=O)OC(C)(C)C)NC(=O)[C@@H]1CCCN1C(=O)[C@H](CC(=O)NC(c1ccccc1)(c1ccccc1)c1ccccc1)NC(=O)[C@H](CCC(=O)OC(C)(C)C)NC(C)=O)C(=O)N[C@@H](CC(C)C)C(=O)N[C@@H](CC(=O)OC(C)(C)C)C(=O)N[C@@H](CCCNC(=O)c1ccc(B(O)O)cc1)C(=O)N[C@@H](Cc1cn(C(c2ccccc2)(c2ccccc2)c2ccccc2)cn1)C(=O)N[C@H](C(=O)N[C@@H](CCC(=O)NC(c1ccccc1)(c1ccccc1)c1ccccc1)C(=O)N[C@@H](CCCNC(=N)NS(=O)(=O)c1c(C)c(C)c2c(c1C)CC(C)(C)O2)C(=O)N[C@H](C(=O)N[C@@H](CCSC)C(N)=O)C(C)C)C(C)C` registered a ring closure, overall yield in data set [1] (27-membered ring) of 8%.

As for `CC[C@H](C)[C@H](NC(=O)[C@H](Cc1c[nH]c2c(Br)cccc12)NC(=O)[C@H](CCC(=O)OC(C)(C)C)NC(=O)[C@@H]1CCCN1C(=O)[C@H](CC(=O)NC(c1ccccc1)(c1ccccc1)c1ccccc1)NC(=O)[C@H](CCC(=O)OC(C)(C)C)NC(C)=O)C(=O)N[C@@H](CC(C)C)C(=O)N[C@@H](CC(=O)OC(C)(C)C)C(=O)N[C@@H](CCNC(=O)c1ccc(B(O)O)cc1)C(=O)N[C@@H](Cc1cn(C(c2ccccc2)(c2ccccc2)c2ccccc2)cn1)C(=O)N[C@H](C(=O)N[C@@H](CCC(=O)NC(c1ccccc1)(c1ccccc1)c1ccccc1)C(=O)N[C@@H](CCCNC(=N)NS(=O)(=O)c1c(C)c(C)c2c(c1C)CC(C)(C)O2)C(=O)N[C@H](C(=O)N[C@@H](CCSC)C(N)=O)C(C)C)C(C)C`, in data set [1] (26-membered ring), the ring closure, overall yield amounted to 9%. In data set [1] (23-membered ring), `CC[C@H](C)[C@H](NC(=O)[C@H](Cc1c[nH]c2c(Br)cccc12)NC(=O)[C@H](CCC(=O)OC(C)(C)C)NC(=O)[C@@H]1CCCN1C(=O)[C@H](CC(=O)NC(c1ccccc1)(c1ccccc1)c1ccccc1)NC(=O)[C@H](CCC(=O)OC(C)(C)C)NC(C)=O)C(=O)N[C@@H](CC(C)C)C(=O)N[C@@H](CC(=O)OC(C)(C)C)C(=O)N[C@@H](Cc1ccc(B2OC(C)(C)C(C)(C)O2)cc1)C(=O)N[C@@H](Cc1cn(C(c2ccccc2)(c2ccccc2)c2ccccc2)cn1)C(=O)N[C@H](C(=O)N[C@@H](CCC(=O)NC(c1ccccc1)(c1ccccc1)c1ccccc1)C(=O)N[C@@H](CCCNC(=N)NS(=O)(=O)c1c(C)c(C)c2c(c1C)CC(C)(C)O2)C(=O)N[C@H](C(=O)N[C@@H](CCSC)C(N)=O)C(C)C)C(C)C` displayed a ring closure, overall yield of 3%. As for `CC[C@H](C)[C@H](NC(=O)[C@H](Cc1c[nH]c2cc(Br)ccc12)NC(=O)[C@H](CCC(=O)OC(C)(C)C)NC(=O)[C@@H]1CCCN1C(=O)[C@H](CC(=O)NC(c1ccccc1)(c1ccccc1)c1ccccc1)NC(=O)[C@H](CCC(=O)OC(C)(C)C)NC(C)=O)C(=O)N[C@@H](CC(C)C)C(=O)N[C@@H](CC(=O)OC(C)(C)C)C(=O)N[C@@H](CCCCNC(=O)c1ccc(B(O)O)cc1)C(=O)N[C@@H](Cc1cn(C(c2ccccc2)(c2ccccc2)c2ccccc2)cn1)C(=O)N[C@H](C(=O)N[C@@H](CCC(=O)NC(c1ccccc1)(c1ccccc1)c1ccccc1)C(=O)N[C@@H](CCCNC(=N)NS(=O)(=O)c1c(C)c(C)c2c(c1C)CC(C)(C)O2)C(=O)N[C@H](C(=O)N[C@@H](CCSC)C(N)=O)C(C)C)C(C)C`, the ring closure, overall yield in data set [1] (29-membered ring) came out at 10%. As to `CC[C@H](C)[C@H](NC(=O)[C@H](Cc1c[nH]c2cc(Br)ccc12)NC(=O)[C@H](CCC(=O)OC(C)(C)C)NC(=O)[C@@H]1CCCN1C(=O)[C@H](CC(=O)NC(c1ccccc1)(c1ccccc1)c1ccccc1)NC(=O)[C@H](CCC(=O)OC(C)(C)C)NC(C)=O)C(=O)N[C@@H](CC(C)C)C(=O)N[C@@H](CC(=O)OC(C)(C)C)C(=O)N[C@@H](CCCNC(=O)c1ccc(B(O)O)cc1)C(=O)N[C@@H](Cc1cn(C(c2ccccc2)(c2ccccc2)c2ccccc2)cn1)C(=O)N[C@H](C(=O)N[C@@H](CCC(=O)NC(c1ccccc1)(c1ccccc1)c1ccccc1)C(=O)N[C@@H](CCCNC(=N)NS(=O)(=O)c1c(C)c(C)c2c(c1C)CC(C)(C)O2)C(=O)N[C@H](C(=O)N[C@@H](CCSC)C(N)=O)C(C)C)C(C)C`, the ring closure, overall yield in data set [1] (28-membered ring) came to 8%. `CC[C@H](C)[C@H](NC(=O)[C@H](Cc1c[nH]c2cc(Br)ccc12)NC(=O)[C@H](CCC(=O)OC(C)(C)C)NC(=O)[C@@H]1CCCN1C(=O)[C@H](CC(=O)NC(c1ccccc1)(c1ccccc1)c1ccccc1)NC(=O)[C@H](CCC(=O)OC(C)(C)C)NC(C)=O)C(=O)N[C@@H](CC(C)C)C(=O)N[C@@H](CC(=O)OC(C)(C)C)C(=O)N[C@@H](CCNC(=O)c1ccc(B(O)O)cc1)C(=O)N[C@@H](Cc1cn(C(c2ccccc2)(c2ccccc2)c2ccccc2)cn1)C(=O)N[C@H](C(=O)N[C@@H](CCC(=O)NC(c1ccccc1)(c1ccccc1)c1ccccc1)C(=O)N[C@@H](CCCNC(=N)NS(=O)(=O)c1c(C)c(C)c2c(c1C)CC(C)(C)O2)C(=O)N[C@H](C(=O)N[C@@H](CCSC)C(N)=O)C(C)C)C(C)C`: the ring closure, overall yield in data set [1] (27-membered ring) was found to be 8%.

Take `CC[C@H](C)[C@H](NC(=O)[C@H](Cc1c[nH]c2cc(Br)ccc12)NC(=O)[C@H](CCC(=O)OC(C)(C)C)NC(=O)[C@@H]1CCCN1C(=O)[C@H](CC(=O)NC(c1ccccc1)(c1ccccc1)c1ccccc1)NC(=O)[C@H](CCC(=O)OC(C)(C)C)NC(C)=O)C(=O)N[C@@H](CC(C)C)C(=O)N[C@@H](CC(=O)OC(C)(C)C)C(=O)N[C@@H](Cc1ccc(B2OC(C)(C)C(C)(C)O2)cc1)C(=O)N[C@@H](Cc1cn(C(c2ccccc2)(c2ccccc2)c2ccccc2)cn1)C(=O)N[C@H](C(=O)N[C@@H](CCC(=O)NC(c1ccccc1)(c1ccccc1)c1ccccc1)C(=O)N[C@@H](CCCNC(=N)NS(=O)(=O)c1c(C)c(C)c2c(c1C)CC(C)(C)O2)C(=O)N[C@H](C(=O)N[C@@H](CCSC)C(N)=O)C(C)C)C(C)C`: the ring closure, overall yield in data set [1] (24-membered ring) worked out at 4%. In turn, Ac-ENPESILDEHVQRVM-NH2 gave a θ222 of -4.29 mdeg. For the same molecule, the [θ]222 (deg cm2 dmol-1) in data set [2] is -42900. The MRE (deg cm2 dmol-1) in data set [3] was -2860.

In the case of Ac-ENPEWILDKHVQRVM-NH2, the cleaved bond result in the data set with Proteinase K is on record as “Leu-Asp; also recorded: Lys-His; also recorded: Gln-Arg”. As to “Ac-Glu-Asn-Pro-Glu-Trp-Ile-Leu-Asp-Lys-His-Val-Gln-Arg-Val-Met-NH2 (Trp and Lys drawn as structures, side chains cross-linked by the 7-aryl-Trp staple)”, in the data set on Proteinase K, the cleaved bond entry is listed as “Gln-Arg” and the not cleaved result was “not hydrolysed after leucine within 120 min; also recorded: not hydrolysed after lysine within 120 min”. In general, Kd refers to the free concentration of one partner at which half of the binding sites on the other are occupied at equilibrium, for simple one-to-one binding. PESILDEHVQRVLRT (also: FITC label, site not given here) [fAxWt (FITC-labelled axin CBD peptide) 467-481] gave an equilibrium dissociation constant (Kd) with β-catenin of 1190 nM.

(Values after article PMC8744458 (Beilstein Journal of Organic Chemistry, 2022).)
